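All cell lines were grown in 96-well plates and treated with compound for 48 hours. GI50 marks 50% less growth.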 Calls of active or inactive are those of the source. Rule as the data show it: active = GI50 up to about 1.1 µM and inactive = higher.
Assays:
Assay in all cases: DTP human tumour cell line panel, 48 h
OVCAR-5 = tested on: OVCAR-5
U-251 = tested on: U-251
HCT-15 = tested on: HCT-15
SF-295 = tested on: SF-295
DLD-1 = tested on: DLD-1
CAKI-1 = tested on: CAKI-1
OVCAR-3 = tested on: OVCAR-3
NCI-H460 = tested on: NCI-H460
LXFL 529 = tested on: LXFL 529
HT-29 = tested on: HT-29
KM-20L2 = tested on: KM-20L2
SF-268 = tested on: SF-268
OVCAR-4 = tested on: OVCAR-4
SN12C = tested on: SN12C
TK-10 = tested on: TK-10
A549 = tested on: A549
SR = tested on: SR
NCI-H23 = tested on: NCI-H23
786-0 = tested on: 786-0
A498 = tested on: A498
ACHN = tested on: ACHN
SK-MEL-28 = tested on: SK-MEL-28
LOX IMVI = tested on: LOX IMVI
SNB-75 = tested on: SNB-75
HOP-18 = tested on: HOP-18
HCC 2998 = tested on: HCC 2998
RPMI-8226 = tested on: RPMI-8226
IGROV-1 = tested on: IGROV-1
CCRF-CEM = tested on: CCRF-CEM
SF-539 = tested on: SF-539
SK-MEL-5 = tested on: SK-MEL-5
SK-MEL-2 = tested on: SK-MEL-2
COLO 205 = tested on: COLO 205
OVCAR-8 = tested on: OVCAR-8
HOP-92 = tested on: HOP-92
HOP-62 = tested on: HOP-62
SW-620 = tested on: SW-620
HL-60 = tested on: HL-60
K562 = tested on: K562
DMS-273 = tested on: DMS-273
DMS-114 = tested on: DMS-114
M19-MEL = tested on: M19-MEL
M14 = tested on: M14
UACC-62 = tested on: UACC-62
MOLT-4 = tested on: MOLT-4
KM12 = tested on: KM12
SK-OV-3 = tested on: SK-OV-3
HCT-116 = tested on: HCT-116
RXF 393 = tested on: RXF 393
EKVX = tested on: EKVX
UO-31 = tested on: UO-31
XF498 = tested on: XF498
Malme-3M = tested on: Malme-3M
UACC-257 = tested on: UACC-257
NCI-H226 = tested on: NCI-H226
SNB-78 = tested on: SNB-78
NCI-H522 = tested on: NCI-H522
SNB-19 = tested on: SNB-19
RXF 631 = tested on: RXF 631

Measured: GI50

COC(=O)C1=C(c2cc(OC)c(OC)c(OC)c2)OC(c2ccc(OC)c(OC)c2)C1 (configuration not stated)
43.5 µM: HCT-15
inactive: OVCAR-5 > 100 µM | U-251 42 µM | SF-295 35.6 µM | DLD-1 36.5 µM | CAKI-1 > 100 µM | OVCAR-3 38.6 µM | NCI-H460 39.5 µM | LXFL 529 26.5 µM | HT-29 38.7 µM | KM-20L2 44.9 µM | SF-268 55.8 µM | OVCAR-4 47.2 µM | SN12C 51.6 µM | TK-10 54.3 µM | A549 46.8 µM | SR 51.6 µM | NCI-H23 78.2 µM | 786-0 73.3 µM | A498 22.6 µM | ACHN 51.2 µM | SK-MEL-28 79.8 µM | LOX IMVI 29.3 µM | SNB-75 66.1 µM | HOP-18 92.3 µM | HCC 2998 54.7 µM | RPMI-8226 75.2 µM | IGROV-1 61.1 µM | CCRF-CEM 60.1 µM | SF-539 42.9 µM | SK-MEL-5 29.7 µM | SK-MEL-2 61.2 µM | COLO 205 19.1 µM | OVCAR-8 47.9 µM | HOP-92 42.5 µM | HOP-62 59.3 µM | SW-620 33.5 µM | HL-60 27.4 µM | K562 45.1 µM | DMS-273 45.4 µM | DMS-114 28.4 µM | M19-MEL 43.3 µM | M14 61.1 µM | UACC-62 71.4 µM | MOLT-4 18.9 µM | KM12 29.2 µM | SK-OV-3 40.5 µM | HCT-116 43.8 µM | RXF 393 35.9 µM | EKVX > 100 µM | UO-31 38.9 µM | XF498 68.4 µM | Malme-3M > 100 µM | UACC-257 40.6 µM | NCI-H226 96.6 µM

C[C@]12CC[C@H](O)CC1CCC[C@@H]2O (some centres not stated)
> 100 µM: HCT-15
inactive: U-251 > 100 µM | SNB-78 > 100 µM | SF-295 > 100 µM | DLD-1 > 100 µM | CAKI-1 > 100 µM | OVCAR-3 > 100 µM | NCI-H460 > 100 µM | LXFL 529 > 100 µM | HT-29 > 100 µM | SF-268 > 100 µM | OVCAR-4 > 100 µM | SN12C > 100 µM | TK-10 > 100 µM | A549 > 100 µM | NCI-H23 > 100 µM | 786-0 > 100 µM | A498 > 100 µM | SK-MEL-28 > 100 µM | LOX IMVI > 100 µM | SNB-75 > 100 µM | NCI-H522 > 100 µM | HCC 2998 > 100 µM | RPMI-8226 > 100 µM | IGROV-1 > 100 µM | CCRF-CEM > 100 µM | SF-539 > 100 µM | SK-MEL-5 > 100 µM | SK-MEL-2 > 100 µM | COLO 205 > 100 µM | SNB-19 > 100 µM | OVCAR-8 > 100 µM | HOP-92 > 100 µM | HOP-62 > 100 µM | SW-620 > 100 µM | HL-60 > 100 µM | K562 > 100 µM | DMS-273 > 100 µM | DMS-114 > 100 µM | M14 > 100 µM | UACC-62 > 100 µM | MOLT-4 > 100 µM | KM12 > 100 µM | SK-OV-3 > 100 µM | HCT-116 > 100 µM | RXF 393 > 100 µM | EKVX > 100 µM | UO-31 > 100 µM | XF498 > 100 µM | Malme-3M > 100 µM | UACC-257 > 100 µM | RXF 631 > 100 µM

CCOC(=O)/C(O)=C(/c1n[nH]c(=O)c2ccccc12)[N+](=O)[O-]
> 100 µM: HCT-15
inactive: OVCAR-5 > 100 µM | U-251 > 100 µM | SNB-78 > 100 µM | SF-295 > 100 µM | DLD-1 > 100 µM | OVCAR-3 > 100 µM | NCI-H460 > 100 µM | LXFL 529 > 100 µM | HT-29 > 100 µM | KM-20L2 > 100 µM | SF-268 > 100 µM | OVCAR-4 > 100 µM | SN12C > 100 µM | TK-10 > 100 µM | A549 > 100 µM | NCI-H23 > 100 µM | 786-0 > 100 µM | A498 > 100 µM | ACHN > 100 µM | SK-MEL-28 > 100 µM | LOX IMVI > 100 µM | SNB-75 > 100 µM | HOP-18 > 100 µM | NCI-H522 > 100 µM | HCC 2998 > 100 µM | RPMI-8226 > 100 µM | IGROV-1 > 100 µM | CCRF-CEM > 100 µM | SF-539 > 100 µM | SK-MEL-5 > 100 µM | SK-MEL-2 > 100 µM | COLO 205 > 100 µM | SNB-19 > 100 µM | OVCAR-8 > 100 µM | HOP-92 > 100 µM | HOP-62 > 100 µM | SW-620 > 100 µM | HL-60 > 100 µM | K562 > 100 µM | DMS-273 > 100 µM | DMS-114 > 100 µM | M19-MEL > 100 µM | M14 > 100 µM | UACC-62 > 100 µM | MOLT-4 > 100 µM | KM12 > 100 µM | SK-OV-3 > 100 µM | HCT-116 > 100 µM | RXF 393 > 100 µM | EKVX 70.8 µM | UO-31 > 100 µM | Malme-3M > 100 µM | UACC-257 > 100 µM | NCI-H226 > 100 µM

COc1ccc2ccccc2c1CN1CCOCCOCCN(Cc2c(OC)ccc3ccccc23)CCOCCOCC1
> 91 µM: HCT-15
inactive: OVCAR-5 > 100 µM | U-251 > 93.3 µM | SNB-78 > 68.4 µM | SF-295 > 100 µM | DLD-1 > 100 µM | CAKI-1 > 100 µM | OVCAR-3 16.7 µM | NCI-H460 25.4 µM | LXFL 529 > 89.9 µM | HT-29 > 20.3 µM | KM-20L2 > 23 µM | SF-268 > 80.5 µM | OVCAR-4 > 100 µM | SN12C > 69.8 µM | TK-10 > 100 µM | A549 98.2 µM | NCI-H23 > 75.3 µM | 786-0 31.8 µM | A498 > 83.4 µM | ACHN > 100 µM | SK-MEL-28 > 45.2 µM | LOX IMVI > 68.5 µM | SNB-75 > 52.5 µM | NCI-H522 > 60.5 µM | HCC 2998 14.8 µM | RPMI-8226 10.8 µM | IGROV-1 > 100 µM | CCRF-CEM > 39.1 µM | SF-539 > 45.3 µM | SK-MEL-5 > 38.9 µM | SK-MEL-2 46.3 µM | COLO 205 > 90.4 µM | SNB-19 > 100 µM | OVCAR-8 > 100 µM | HOP-92 > 27.9 µM | HOP-62 > 100 µM | SW-620 > 62.1 µM | HL-60 32 µM | K562 > 25.6 µM | DMS-273 24.2 µM | DMS-114 9.95 µM | M19-MEL > 81.8 µM | M14 17.1 µM | UACC-62 > 85.5 µM | MOLT-4 > 49.8 µM | KM12 > 41.7 µM | SK-OV-3 > 100 µM | HCT-116 25.1 µM | RXF 393 > 100 µM | EKVX > 100 µM | UO-31 > 100 µM | XF498 > 41.5 µM | Malme-3M > 45.9 µM | UACC-257 45.2 µM | NCI-H226 99.3 µM
active: SR 0.514 µM

COC(=O)c1ccccc1NC(=O)C(=O)CC(=O)CC(c1ccccc1)c1c(O)c2ccccc2oc1=O (configuration not stated)
inactive: OVCAR-5 > 100 µM | SF-295 > 100 µM | DLD-1 > 100 µM | CAKI-1 > 100 µM | OVCAR-3 > 100 µM | NCI-H460 > 100 µM | HT-29 > 100 µM | KM-20L2 > 100 µM | SF-268 > 100 µM | OVCAR-4 > 100 µM | SN12C > 100 µM | TK-10 > 100 µM | A549 > 100 µM | SR > 100 µM | NCI-H23 > 100 µM | 786-0 > 100 µM | A498 47.4 µM | ACHN > 100 µM | SK-MEL-28 > 100 µM | NCI-H522 > 100 µM | HCC 2998 > 100 µM | RPMI-8226 > 100 µM | IGROV-1 > 100 µM | CCRF-CEM > 100 µM | SF-539 > 100 µM | SK-MEL-5 > 100 µM | SK-MEL-2 > 100 µM | COLO 205 > 100 µM | SNB-19 > 100 µM | OVCAR-8 > 100 µM | HOP-62 > 100 µM | SW-620 > 100 µM | HL-60 > 100 µM | K562 > 10 µM | DMS-114 > 100 µM | M19-MEL > 100 µM | M14 > 100 µM | UACC-62 > 100 µM | MOLT-4 > 100 µM | KM12 > 100 µM | SK-OV-3 > 100 µM | HCT-116 > 100 µM | RXF 393 > 100 µM | EKVX > 100 µM | UO-31 > 100 µM | Malme-3M > 100 µM | UACC-257 > 100 µM | RXF 631 > 100 µM

Reference: ChEMBL document CHEMBL1201862, “PubChem BioAssay data set” (2004)
